Laboratory results as given in ChEMBL document CHEMBL4406843, “β-Amino acid derivatives as mitochondrial complex III inhibitors of L. donovani: A promising chemotype targeting visceral leishmaniasis” (Eur J Med Chem, 2019).
Active and inactive are the calls of the source. No cut-off for these calls is given here.

Columns and labels:
[1] = Tmax in BALB/c mouse at 50 mg/kg, ip by HPLC analysis; assay type: ADME, organism-based; settings: in vivo
[2] = test system: Leishmania donovani; experiment: Induction of ROS generation in Leishmania donovani promastigotes at 50 uM after 3 hrs by H2DCFDA probe based flow cytometry (reference value: 1.97%); assay type: functional
[3] = test system: Leishmania donovani; experiment: Antileishmanial activity against promastigote stage of Leishmania donovani MHOM/IN/80/Dd8 harboring luciferase reporter gene at 25 uM after 48 hrs by Steady-Glo luminescence assay relative to control; assay type: functional; settings: MHOM/IN/80/Dd8, 48 h
[4] = test system: Leishmania donovani; experiment: Antileishmanial activity against Leishmania donovani amastigotes infected in golden hamster assessed as reduction in parasite burden in liver at 50 mg/kg, ip administered on alternative days for 4 weeks starting at 4 weeks post-infection and measured after 2 week post last dose Giemsa staining-based assay relative to control; assay type: functional
[5] = test system: J774; experiment: Immunostimulatory activity in mouse J774 cells infected with Leishmania donovani promastigotes assessed as reduction in TGF-beta cytokine production at 50 uM after 48 hrs by ELISA; assay type: functional, cell-based
[6] = test system: Leishmania donovani; experiment: Induction of apoptosis in Leishmania donovani promastigotes assessed as late apoptotic cells at 50 uM after 48 hrs by Annexin-V/propidium iodide staining based flow cytometric method (reference value: 0.59%); assay type: functional
[7] = test system: Leishmania donovani; experiment: Induction of apoptosis in Leishmania donovani promastigotes assessed as late apoptotic cells at 50 uM after 24 hrs by Annexin-V/propidium iodide staining based flow cytometric method (reference value: 0.59%); assay type: functional
[8] = test system: Leishmania donovani; experiment: Antileishmanial activity against Leishmania donovani MHOM/IN/80/Dd8 amastigotes harboring luciferase reporter gene infected in mouse J774 cells at 100 uM after 72 hrs by Steady-Glo luminescence assay relative to control; assay type: functional; settings: MHOM/IN/80/Dd8, J774, 72 h
[9] = Cmax in BALB/c mouse at 50 mg/kg, ip by HPLC analysis; assay type: ADME, organism-based; design: dose 50 mg/kg, route intraperitoneal; settings: in vivo
[10] = Toxicity in BALB/c mouse infected with Leishmania donovani promastigotes assessed as serum ALT level at 50 mg/kg , ip measured after 3 to 7 weeks (rvb = 31 IU/L); assay type: organism-based; settings: in vivo
[11] = Volume of distribution in BALB/c mouse at 50 mg/kg, ip by HPLC analysis; assay type: ADME, organism-based; settings: in vivo
[12] = test system: J774; experiment: Immunostimulatory activity in mouse J774 cells infected with Leishmania donovani promastigotes assessed as increase in IL-2 cytokine production at 50 uM after 48 hrs by ELISA; assay type: functional, cell-based
[13] = test system: Leishmania donovani; experiment: Inhibition of succinate-ubiquinone oxidoreductase in Leishmania donovani promastigotes mitochondria at 8.1 to 50 uM using succinate as substrate in presence fo DCPIP by photometry analysis
[14] = Stability in simulated gastric fluid at 10 ug/ml measured after 2 hrs by UPLC analysis relative to control; assay type: ADME; settings: read-out: Stability
[15] = Cytotoxicity against African green monkey Vero cells assessed as cell viability at 25 uM by MTT assay relative to control; assay type: cell-based; settings: chlorocebus sabaeus, read-out: Activity
[16] = test system: Leishmania donovani; experiment: Induction of plasma membrane permeabilization in Leishmania donovani promastigotes assessed as increase in fluorescence at 50 uM after 2 hrs by SYTOX green-based flow cytometry analysis relative to control; assay type: functional
[17] = Selectivity index, ratio of CC50 for African green monkey Vero cells to IC50 for antileishmanial activity against Leishmania donovani MHOM/IN/80/Dd8 amastigotes harboring luciferase reporter gene; assay type: toxicity; settings: read-out: Ratio CC50/IC50
[18] = test system: Leishmania donovani; experiment: Induction of mitochondrial dysfunction in Leishmania donovani promastigotes assessed as reduction in mitochondrial membrane potential at 50 uM after 12 hrs by JC-1 staining-based flow cytometric analysis (reference value: 7.73%); assay type: functional; design: scale not given: the % may be the effect or the level left
[19] = test system: Leishmania donovani; experiment: Induction of bio-energetic collapse in Leishmania donovani promastigotes assessed as reduction in ATP level at 50 uM after 48 hrs by bioluminescence based method relative to control; assay type: functional; design: scale not given: the % may be the effect or the level left
[20] = test system: Leishmania donovani; experiment: (§1) Antileishmanial activity against Leishmania donovani promastigotes infected in BALB/c mouse assessed as reduction in parasite burden in liver at 25 mg/kg, ip administered for 7 days starting at 15 days post-infection and measured after 1 week post last dose Giemsa staining-based assay relative to control; assay type: functional
[21] = Half life in BALB/c mouse at 50 mg/kg, ip by HPLC analysis; assay type: ADME, organism-based; settings: in vivo
[22] = Toxicity in golden hamster infected with Leishmania donovani amastigotes assessed as effect on survival at 12.5 to 200 mg/kg, ip administered on alternative days for 4 weeks starting at 4 weeks post-infection; assay type: organism-based, Mesocricetus auratus; settings: in vivo, 672 h
[23] = test system: Leishmania donovani; experiment: as §1, with “inhibition” for “reduction”, “100” for “25”; assay type: functional
[24] = test system: Leishmania donovani; experiment: Induction of apoptosis in Leishmania donovani promastigotes assessed as early apoptotic cells at 50 uM after 24 hrs by Annexin-V/propidium iodide staining based flow cytometric method (reference value: 5.79%); assay type: functional
[25] = Cytotoxicity against African green monkey Vero cells assessed as cell viability up to 100 uM after 72 hrs by MTT assay relative to control; assay type: cell-based; settings: chlorocebus sabaeus, read-out: Activity
[26] = Cytotoxicity against mouse J774 cells assessed as cell viability up to 100 uM after 72 hrs by MTT assay relative to control; assay type: cell-based; settings: read-out: Activity
[27] = test system: Leishmania donovani; experiment: Induction of mitochondrial dysfunction in Leishmania donovani promastigotes assessed as reduction in mitochondrial membrane potential at 50 uM after 6 hrs by JC-1 staining-based flow cytometric analysis (reference value: 7.73%); assay type: functional; design: scale not given: the % may be the effect or the level left
[28] = AUC(0 to infinity) in BALB/c mouse at 50 mg/kg, ip by HPLC analysis; assay type: ADME, organism-based; design: dose 50 mg/kg, route intraperitoneal, time infinity; settings: in vivo
[29] = test system: Leishmania donovani; experiment: Induction of mitochondrial membrane depolarization in Leishmania donovani promastigotes assessed as disruption of cristae at 50 uM after 24 hrs by TEM analysis; assay type: functional, organism-based
[30] = test system: Leishmania donovani; experiment: Antileishmanial activity against promastigote stage of Leishmania donovani MHOM/IN/80/Dd8 harboring luciferase reporter gene at 100 uM after 48 hrs by Steady-Glo luminescence assay relative to control; assay type: functional; settings: MHOM/IN/80/Dd8, 48 h
[31] = Toxicity in golden hamster infected with Leishmania donovani amastigotes assessed as reduction in serum ALT level at 50 mg/kg , ip and measured after 10 weeks post infection (reference value: 216 U/L); assay type: organism-based, Mesocricetus auratus; settings: in vivo, 1680 h
[32] = Cytotoxicity against African green monkey Vero cells assessed as cell viability at 50 uM by MTT assay relative to control; assay type: cell-based; settings: chlorocebus sabaeus, read-out: Activity
[33] = Toxicity in BALB/c mouse infected with Leishmania donovani promastigotes assessed as effect on body weight at 12.5 to 200 mg/kg, ip administered for 7 days starting at 15 days post-infection; assay type: organism-based; settings: in vivo
[34] = Cytotoxicity against mouse J774 cells assessed as reduction in cell viability after 72 hrs by MTT assay; assay type: cell-based
[35] = test system: Leishmania donovani; experiment: Induction of mitochondrial dysfunction in Leishmania donovani promastigotes assessed as reduction in mitochondrial membrane potential at 50 uM after 3 hrs by JC-1 staining-based flow cytometric analysis (reference value: 7.73%); assay type: functional; design: scale not given: the % may be the effect or the level left
[36] = Clearance in BALB/c mouse at 50 mg/kg, ip by HPLC analysis; assay type: ADME, organism-based; settings: in vivo
[37] = test system: Leishmania donovani; experiment: Induction of ROS generation in Leishmania donovani promastigotes at 50 uM after 24 hrs by H2DCFDA probe based flow cytometry (reference value: 1.97%); assay type: functional
[38] = test system: Leishmania donovani; experiment: as §1, with “inhibition” for “reduction”, “200” for “25”; assay type: functional

CCOC(=O)C(C(=O)c1ccc(OC)cc1)C(NC(C)=O)c1cccc2ccccc12 (stereo not drawn)
Tmax [1]: 0.25 h | Activity [2]: 7.49% | inhibition at 25 µM [3]: 85.3% | inhibition in vivo at 50 mg/kg [4]: 88.2% | Activity [5]: inactive | Activity [6]: 2.65% | Activity [7]: 0.8% | inhibition at 100 µM [8]: 95.9% | Cmax [9]: 2.08 µg/mL | Activity [10]: 17 to 177 IU/L | Vd [11]: 301.51 L/kg | Activity [12]: inactive | inhibition [13]: inactive | remaining at 2 h, 10 ug/ml [14]: 81.9% | viability at 25 µM [15]: 99.2% | Activity [16]: 3.1% | selectivity ratio [17]: 25.7 | Activity [18]: 37.26% | Activity [19]: >67% | inhibition in vivo at 25 mg/kg [20]: 67.6% | half-life [21]: 5.11 h | Activity [22]: Non-Toxic | inhibition in vivo at 100 mg/kg [23]: 92.1% | Activity [24]: 8.56% | viability at 72 h [25]: > 93% | viability at 72 h [26]: > 93% | Activity [27]: 19.52% | AUC(0-inf) [28]: 1.28 µg·h/mL | Activity [29]: Active | inhibition at 100 µM [30]: 97.1% | Activity [31]: 166 IU/L | viability at 50 µM [32]: 98.7% | Activity [33]: Non-Toxic | CC50 at 72 h [34]: > 350 µM | Activity [35]: 8.62% | CL/F [36]: 39.8 L/h/kg | Activity [37]: 85.54% | inhibition in vivo at 200 mg/kg [38]: 92.1%
